In PubChem BioAssay AID489035 (Sanford-Burnham Center for Chemical Genomics, 2010) one finds IC50 data, which are given here for 91 compounds.

pIC50: −log10 of the molar value. Calls of active or inactive are those of the source. The rule behind the calls is not given here. A value given as a limit tells only on which side of the number the result lay.

As a reminder, the pIC50 is the IC50 on a negative log10 scale, so that one unit is a factor of ten. As a reminder, the IC50 is the concentration at which inhibition is half-maximal.

The experiment deals with Jurkat NF-kB reporter, TCR-induced, luciferase luminescence. The experiment is described as follows: inhibitors of TCR-driven NF-kB activation, dose response, Jurkat cells, luminescence (AID 489035).
Take `COc1ccc(NC(=O)/C(Cl)=C(/Cl)S(=O)Cc2ccc(Cl)cc2)cn1` (stereo unspecified): the pIC50 is 6.57. With `COC(=O)C(Cc1ccc(N(CCCl)CCCl)cc1)N=Cc1ccccc1O` (stereo unspecified), the pIC50 was 6.19. Consider `COc1cc(C(=O)Nc2ccc3c(c2)CCN3C(C)=O)cc(OC)c1OC`, for which the IC50 is > 80 µM (inactive). On to `O=C(CNC(=O)c1ccco1)N=Nc1c(O)n(CCc2ccccc2)c2ccccc12`, for which the IC50 is > 80 µM (inactive). As to `COc1ccc2nc(C)cc(N/N=C/c3ccc(F)cc3)c2c1`, the pIC50 is 5.63. As for `CC(C)Cn1c(N)c(C(=O)CSc2ccc3c(c2)OCCO3)c(=O)n(C)c1=O`, the negative logarithm of the IC50 (pIC50) is over 6.80. As to `CCN1C/C(=C/c2ccc(OC)c(O)c2)C(=O)/C(=C/c2ccc(OC)c(O)c2)C1`, the IC50 is 22.5 µM (inactive). For the compound `COc1ccc(/C=N/Nc2cc(C)nc3ccc(OC)cc23)c(OC)c1`, the pIC50 was 5.62. Take `O=S1(=O)C=C(Sc2nc3cc(Cl)ccc3o2)c2ccccc21`: the pIC50 is over 6.80. On to `CCCCCCCOc1ccc(OC(=O)c2ccncc2)cc1`, for which the IC50 was > 80 µM (inactive).

In the case of `Cc1ccc(C(=O)O/N=C(\N)c2ccccn2)c(C)c1`, the pIC50 was 6.38. As to `O=C1CC(c2cccc(Br)c2)c2cc3c(cc2N1)CCC3` (stereo unspecified), the IC50 is 63.9 µM (inactive). With `Cc1ccc(NS(=O)(=O)c2ccc(-c3cnc(C4CC4)o3)cc2)c(C)c1`, the negative-log IC50 (pIC50) was 4.83. On the same count and under the same terms, the same measure for `O=C(N/N=C/c1ccccc1Cl)c1[nH]c2ccc(Br)cc2c1-c1ccccc1`: 5.20.

As for `COC(=O)CCC(=O)NC(=S)Nc1sc(C)c(C)c1C(N)=O`, the IC50 is > 80 µM (inactive). As for `O=C(Nc1nc(-c2ccccc2)cs1)c1ccc(N2CCOCC2)c([N+](=O)[O-])c1`, the IC50 is > 80 µM (inactive). For `COc1cc(C2c3cc4c(cc3CC3COC(=O)C32)OCO4)cc(OC)c1OC` (stereo unspecified), the IC50 is > 80 µM (inactive).

For the compound `CCOc1ccc2c(c1)OC(c1ccc(C)cc1)(C(F)(F)F)NC2=O` (stereo unspecified), the IC50 was > 80 µM (inactive).

For `CCn1c2ccccc2c2cc(NC(=O)c3cc(OC)c(OC)c(OC)c3)ccc21`, the IC50 was 76.2 µM (inactive). As for `CC(C)c1oc(=O)cc2c1[C@@H](O)[C@H]1OC(=O)[C@@]3(C)C[C@@H](O)[C@@H](O)[C@@]2(C)C13` (stereo partly specified), the pIC50 is 5.97.

With `COc1ccc(/C=c2/sc3n(c2=O)C(c2ccccc2OC)C2=C(N=3)c3ccccc3CC2)cc1O` (stereo unspecified), the IC50 was 22.6 µM (inactive).

For `COc1cc(/C=C2/SC(=Nc3ccc(O)cc3)NC2=O)ccc1O`, the pIC50 is 4.97. For `CC(C)(C)c1ccc(C(=O)Nc2ccc(Oc3cccnc3)nc2)cc1`, the IC50 was > 80 µM (inactive).

As for `CCCOc1ccc(/C=N/Nc2cc(N3CCOCC3)ncn2)c(O)c1`, the pIC50 was 5.00. In the case of `CCOc1ccc2c(c1)OC(c1ccc(OC)cc1)(C(F)(F)F)NC2=O` (stereo unspecified), the IC50 was > 80 µM (inactive).

As for `Cc1ccc(Nc2nc(-c3c(C)nc4ncccn34)cs2)cc1`, the pIC50 is 4.73. As for `O=C1c2cccc3cc([N+](=O)[O-])cc(c23)C(=O)N1CCN1CCCC1`, the IC50 is > 80 µM (inactive). `COc1ccc(/C=C2/C(=O)OCc3cc(OC)c(OC)cc32)cc1`: the IC50 was > 80 µM (inactive). Regarding `C[C@]12CC[C@H](O)C[C@H]1CC[C@@H]1[C@@H]2C[C@@H](O)[C@]2(C)[C@@H](C3=CC(=O)OC3)CC[C@]12O`, the IC50 is 65.7 µM (inactive). On to `Cc1ccc(NC(=O)c2cc3ccccc3oc2=O)cc1S(=O)(=O)N(C)C`, for which the pIC50 was 6.01.

Regarding `CCOc1ccc(S(=O)(=O)NCc2ccccn2)cc1NC(=O)c1ccccc1`, the IC50 was > 80 µM (inactive). Turning to `O=C(Cc1ccc(-c2ccccc2)cc1)NCc1ccccc1`, the pIC50 was over 6.80. Turning to `Cn1c2c(c(=O)n(C)c1=O)C(C(F)(F)F)(C(F)(F)F)N=C(c1ccc(Cl)cc1)N2`, the IC50 was > 80 µM (inactive).

As to `O=C(Nc1ccc(C(F)(F)F)cc1)c1cccn(Cc2ccc3c(c2)OC(F)(F)O3)c1=O`, the pIC50 was 4.76.

Consider `O=C(N[C@@H](Cc1ccccc1)C(=O)CCl)OCc1ccccc1`, for which the pIC50 was 6.27. As for `CCc1ccc(/C=N/NC(=O)c2cc(-c3ccncc3)nc3ccccc23)s1`, the IC50 is > 80 µM (inactive). With `COc1ccc(NC(=O)C(=O)NCC2CCCN2S(=O)(=O)c2cccs2)cc1` (stereo unspecified), the pIC50 is 5.15. In the case of `Cc1ccc(-n2ncc3c(N4CCN(c5ccccc5)CC4)ncnc32)c(C)c1`, the pIC50 is 5.31. On to `COc1cccc(N/C(N)=N/c2nc(CSc3ccccn3)cc(=O)[nH]2)c1`, for which the pIC50 is 5.33.

`Cc1[nH]n(-c2ccccc2)c(=O)c1/C=N/Nc1nncc(-c2ccccc2)n1`: the pIC50 is 5.48.

As for `COc1ccc(CNS(=O)(=O)c2cc(-c3cc(C)no3)ccc2C(C)C)cc1`, the IC50 was 64.6 µM (inactive).

For `O=C(Nc1ccccc1Cl)/C(Cl)=C(\Cl)S(=O)c1ccccc1` (stereo unspecified), the pIC50 was 5.75.

As for `COc1cccc(N2CCN(c3ncnc4c3cnn4-c3ccc(C)cc3C)CC2)c1`, the negative logarithm of the IC50 (pIC50) is 4.96.

Consider `Cc1ccc(COC(=O)c2cc([N+](=O)[O-])ccc2N2CCOCC2)cc1`, for which the IC50 was 49 µM (inactive). In the case of `CCOC(=O)c1ccc(Nc2nc(N)c3cc(OC)c(OC)cc3n2)cc1`, the IC50 was > 80 µM (inactive). As for `CCc1ccc2nc(SCC(=O)Nc3ccccc3N3CCOCC3)c(C#N)cc2c1`, the IC50 was 32.4 µM (inactive). Take `CCN(CC)c1ccc2nc3ccc(N)cc3[n+](-c3ccccc3)c2c1`: the pIC50 was 5.58. Take `Cc1csc2sc(-c3ccnc(SCC(=O)NCc4ccccc4)n3)c(C)c12`: the pIC50 was 4.77. On to `COC(=O)C[C@]1(C(=O)OC)CN(C#N)N(c2ccc(Cl)cc2)C12c1ccccc1-c1ccccc12`, for which the pIC50 was 6.14. Regarding `CCCCOc1ccc(Br)cc1/C(C)=N/NC1=NCCN1`, the pIC50 is 5.26. For `Cc1c(C(=O)N/N=C/c2c(O)ccc3ccccc23)nnn1-c1nonc1N`, the IC50 was > 80 µM (inactive).

Regarding `CN(C)S(=O)(=O)c1ccc(Nc2nc(C3CC3)nc3c2nnn3Cc2ccccc2Cl)cc1`, the IC50 is > 80 µM (inactive). As for `Cc1ccc(O)c(NC(=O)c2cc(-c3ccco3)on2)c1`, the IC50 is > 80 µM (inactive). `O=C(Nc1cccc2ccccc12)OC1C=CS(=O)(=O)C1` (stereo unspecified): the pIC50 was 5.97. `O=Cc1cc2ccccc2nc1SCc1ccc(Cl)c(Cl)c1`: the IC50 is > 80 µM (inactive). As to `CCN1/C(=C/c2ccc3ccccc3[n+]2CC)C=Cc2ccccc21`, the pIC50 is 4.95. `CCOC(=O)CC1CCCCN1C(=O)c1cc(COc2cccc3cnccc23)on1` (stereo unspecified): the pIC50 is 5.19. Turning to `Nc1nc(-c2ccccc2)cc(N2CCCCC2)n1`, the IC50 is > 80 µM (inactive).

Turning to `O=C(NCCc1ccccc1)c1ccc2c(c1)OCCO2`, the pIC50 was 5.79. On to `Cc1cccc(N2CCN(C(=O)c3ccc4[nH]c(C)c(C)c4c3)CC2)c1C`, for which the IC50 was > 80 µM (inactive).

For `CC1=CC(C)(C)N(S(=O)(=O)c2ccc(C)cc2)c2cc(C)ccc21`, the pIC50 is 5.17.

As to `CCOC(=O)C(C)Oc1cccc2c(=O)n(CC(=O)NCc3ccccc3)ccc12` (stereo unspecified), the IC50 is > 80 µM (inactive). `COc1ccc(Nc2nc3cc(C)ccc3cc2C#N)c(OC)c1`: the IC50 is > 80 µM (inactive). For `O=C(N/N=C\c1c(O)ccc2ccccc12)c1cncc(Br)c1`, the pIC50 was 5.40. Take `C#CC[N+](C)(C)CCCCCCCCCCCC`: the pIC50 is 5.01. Turning to `O=C(O)c1ccc(N/N=C/c2ccc3c(c2)OCO3)cc1`, the pIC50 is 5.56.

On to `COc1cc([C@@H]2c3cc4c(cc3[C@H](O)[C@H]3COC(=O)[C@H]23)OCO4)cc(OC)c1OC`, for which the IC50 is > 80 µM (inactive). As for `C(=N\Nc1nc2ccccc2s1)/c1ccccn1`, the pIC50 is 6.08. With `COc1ccc2c(c1)/C(=C/c1cnc[nH]1)C(=O)N2`, the pIC50 is 5.19. With `CCCN(CCC)C1=CC(=[N+]2CCCC2)CC(C)(C)C1`, the IC50 is > 80 µM (inactive). Turning to `Cc1c(C)c2cccnc2c2ncccc12`, the pIC50 was 5.69. As for `CCC(C)(C)c1ccc(OCCCC[n+]2cccc(C)c2C)c(C(C)(C)CC)c1`, the pIC50 is 5.32. For `CC(=O)c1sc2c(c1OC(=O)c1ccc(Cl)cc1Cl)c(=O)n(-c1ccccc1)c(=S)n2-c1ccccc1`, the pIC50 is 5.87.

Regarding `COc1cccc(C2CC(=O)Nc3cc4c(cc32)CCC4)c1` (stereo unspecified), the IC50 is > 80 µM (inactive). Still for that read-out and setting: the same measure for `CCCc1cc(C(=O)Nc2cc(C)ccc2O)no1`: > 80 µM (inactive). In the case of `Cc1ccc(-c2nc(-c3ccccn3)no2)cc1`, the pIC50 is 5.63. On to `COc1ccccc1C1=NOC(COc2ccc3c(C)cc(=O)oc3c2)C1` (stereo unspecified), for which the IC50 was > 80 µM (inactive).

Turning to `Cc1ccc(S(=O)(=O)NCc2ccncc2)c(C)c1C`, the IC50 was > 80 µM (inactive).

In the case of `COc1ccccc1CNS(=O)(=O)c1ccc(-c2cc(C)no2)cc1`, the IC50 is > 80 µM (inactive). On to `Cc1ccc(C(=O)c2cc([N+](=O)[O-])ccc2N2CCCCC2)cc1`, for which the IC50 is > 80 µM (inactive). With `c1ccc(-c2cccc(-c3ccccn3)n2)nc1`, the pIC50 is 5.79.

Turning to `CCOc1ccccc1C(=O)N1CCN(c2cccc(Cl)c2)CC1`, the IC50 is > 80 µM (inactive). As for `Brc1ccc2c(c1)C(C1=NCCN1)c1ccccc1CS2` (stereo unspecified), the IC50 was > 80 µM (inactive). `O=C(N/N=C\c1c(O)ccc2ccccc12)c1ccc(S(=O)(=O)N2CCCCC2)cc1`: the pIC50 was 6.01.

Turning to `Cc1ccc(-c2cc(-c3ccc(C)cc3)[n+](-c3ccccc3)c(-c3ccc(C)cc3)c2)cc1`, the negative logarithm of the IC50 (pIC50) was 5.21. On to `O=C(CSc1nnc(Cn2nnc3ccccc32)o1)N(Cc1ccc(F)cc1)c1ccccc1`, for which the IC50 is > 80 µM (inactive). On to `O=C(N/N=C/c1c(O)ccc2ccccc12)c1cccc(C(F)(F)F)c1`, for which the pIC50 was 4.98.

Consider `Cc1ccc(N2C(=O)c3cccc4c(N)ccc(c34)C2=O)c2cccnc12`, for which the pIC50 was over 6.80.

For the compound `Cc1cccc(NS(=O)(=O)c2ccc(-c3cnc(C4CC4)o3)cc2)c1C`, the IC50 was 27.6 µM (inactive). On the same count and under the same terms, the same measure for `CCOC(=O)c1[nH]c(C)c(C(=O)Nc2cc(Cl)ccc2C)c1C`: > 80 µM (inactive); for `CCOC(=O)N1CCN(C(=O)C2CCCN(Cc3nc(-c4ccc(Cl)cc4)oc3C)C2)CC1` (stereo unspecified): > 80 µM (inactive).
